Assay results taken from patent US4822790A, “1-Sulfo-2-oxoazetidine derivatives and their production” (Takeda Chemical Industries, Ltd., priority 1980, dated 1989).

Key:
Assay type in all cases: cell-based
[1] = test system: Staphylococcus aureus FDA209P; test: Antibacterial test (MIC), Staphylococcus aureus FDA209P
Excerpt: (§1) The following is media and compounds employed in the antibacterial test.
(§2) TSA=Trypticase soy agar [Baltimore Biologicals (U.S.A.)]
(§3) B-TSA=Blood trypticase soy agar

[2] = test system: Staphylococcus aureus 308A-1; test: Antibacterial test (MIC), Staphylococcus aureus 308A-1; conditions: for Minimum inhibitory concentration (MIC): medium TSA
Excerpt: as §1, §2, §3

[3] = test system: Staphylococcus aureus 1840; test: Antibacterial test (MIC), Staphylococcus aureus 1840; conditions: for Minimum inhibitory concentration (MIC): medium TSA
Excerpt: as §1, §2, §3

[4] = test system: Escherichia coli NIHJ JC-2; test: Antibacterial test (MIC), Escherichia coli NIHJ JC-2; conditions: for Minimum inhibitory concentration (MIC): medium TSA
Excerpt: as §1, §2, §3

Escherichia coli 0-111 = test: Antibacterial test (MIC), Escherichia coli 0-111; conditions: medium TSA
Excerpt: as §1, §2, §3

Escherichia coli T-7 = test: Antibacterial test (MIC), Escherichia coli T-7; conditions: medium TSA
Excerpt: as §1, §2, §3

[5] = test system: Citrobacter freundii IFO 12681; test: Antibacterial test (MIC), Citrobacter freundii IFO 12681; conditions: for Minimum inhibitory concentration (MIC): medium TSA
Excerpt: as §1, §2, §3

Klebsiella pneumoniae DT = test: Antibacterial test (MIC), Klebsiella pneumoniae DT; conditions: for Minimum inhibitory concentration (MIC): medium TSA
Excerpt: as §1, §2, §3

[6] = test system: Enterobacter cloacae IFO 12937; test: Antibacterial test (MIC), Enterobacter cloacae IFO 12937; conditions: for Minimum inhibitory concentration (MIC): medium TSA
Excerpt: as §1, §2, §3

[7] = test system: Serratia marcescens IFO 12648; test: Antibacterial test (MIC), Serratia marcescens IFO 12648; conditions: for Minimum inhibitory concentration (MIC): medium TSA
Excerpt: as §1, §2, §3

[8] = test system: Proteus vulgaris IFO 3988; test: Antibacterial test (MIC), Proteus vulgaris IFO 3988; conditions: for Minimum inhibitory concentration (MIC): medium TSA
Excerpt: as §1, §2, §3

[9] = test system: Proteus mirabilis IFO 3849; test: Antibacterial test (MIC), Proteus mirabilis IFO 3849; conditions: for Minimum inhibitory concentration (MIC): medium TSA
Excerpt: as §1, §2, §3

[10] = test system: Proteus morganii IFO 3168; test: Antibacterial test (MIC), Proteus morganii IFO 3168; conditions: for Minimum inhibitory concentration (MIC): medium TSA
Excerpt: as §1, §2, §3

[11] = test system: Pseudomonas aeruginosa IFO 3455; test: Antibacterial test (MIC), Pseudomonas aeruginosa IFO 3455; conditions: for Minimum inhibitory concentration (MIC): medium TSA
Excerpt: as §1, §2, §3

[12] = test system: Pseudomonas aeruginosa U 31; test: Antibacterial test (MIC), Pseudomonas aeruginosa U 31; conditions: for Minimum inhibitory concentration (MIC): medium TSA
Excerpt: as §1, §2, §3

[13] = test system: Acinetobacter calcoaceticus IFO 13006; test: Antibacterial test (MIC), Acinetobacter calcoaceticus IFO 13006; conditions: for Minimum inhibitory concentration (MIC): medium TSA
Excerpt: as §1, §2, §3

Candida albicans TA = test: Antibacterial test (MIC), Candida albicans TA; conditions: for Minimum inhibitory concentration (MIC): medium TSA
Excerpt: as §1, §2, §3

[14] = test system: Streptococcus pyogenes E-14; test: Antibacterial test (MIC), Streptococcus pyogenes E-14; conditions: for Minimum inhibitory concentration (MIC): medium B-TSA
Excerpt: as §1, §2, §3

[15] = test system: Streptococcus pyogenes S-8; test: Antibacterial test (MIC), Streptococcus pyogenes S-8; conditions: for Minimum inhibitory concentration (MIC): medium B-TSA
Excerpt: as §1, §2, §3

[16] = test system: Streptococcus mitis America; test: Antibacterial test (MIC), Streptococcus mitis America; conditions: for Minimum inhibitory concentration (MIC): medium B-TSA
Excerpt: as §1, §2, §3

[17] = test system: Streptococcus faecium IFO 3128; test: Antibacterial test (MIC), Streptococcus faecium IFO 3128; conditions: for Minimum inhibitory concentration (MIC): medium B-TSA
Excerpt: as §1, §2, §3

[18] = test system: Streptococcus pneumoniae Type I; test: Antibacterial test (MIC), Streptococcus pneumoniae Type I; conditions: for Minimum inhibitory concentration (MIC): medium B-TSA
Excerpt: as §1, §2, §3

[19] = test system: Corynebacterium diphtheriae Toronto; test: Antibacterial test (MIC), Corynebacterium diphtheriae Toronto; conditions: for Minimum inhibitory concentration (MIC): medium B-TSA
Excerpt: as §1, §2, §3

[20] = test system: Bordetella bronchiseptica Sagami; test: Antibacterial test (MIC), Bordetella bronchiseptica Sagami; conditions: for Minimum inhibitory concentration (MIC): medium B-TSA
Excerpt: as §1, §2, §3

Compound: O=C(NC1CN(S(=O)(=O)[O-])C1=O)C(NC(=O)N1CCN(N=Cc2ccco2)C1=O)c1cccs1.[Na+] (stereo not drawn) [Compound L, Sodium 3-[2-[(2-oxo-3-furfurylideneaminoimidazolidin-1-yl)-carboxamido]-2-thienylacetamido]-2-oxoazetidine-1-sulfonate]
- Minimum inhibitory concentration (MIC) ([1]; medium B-TSA): 6.25 µg/mL
- Minimum inhibitory concentration (MIC) ([1]; medium TSA): 6.25 µg/mL
- Minimum inhibitory concentration (MIC) [2]: 3.13 µg/mL
- Minimum inhibitory concentration (MIC) [3]: 25 µg/mL
- Minimum inhibitory concentration (MIC) [4]: 1.56 µg/mL
- Minimum inhibitory concentration (MIC) (Escherichia coli 0-111): < 0.1 µg/mL
- Minimum inhibitory concentration (MIC) (Escherichia coli T-7): > 100 µg/mL
- Minimum inhibitory concentration (MIC) [5]: 1.56 µg/mL
- Minimum inhibitory concentration (MIC) (Klebsiella pneumoniae DT): < 0.1 µg/mL
- Minimum inhibitory concentration (MIC) [6]: 25 µg/mL
- Minimum inhibitory concentration (MIC) [7]: 1.56 µg/mL
- Minimum inhibitory concentration (MIC) [8]: 0.2 µg/mL
- Minimum inhibitory concentration (MIC) [9]: 0.78 µg/mL
- Minimum inhibitory concentration (MIC) [10]: 12.5 µg/mL
- Minimum inhibitory concentration (MIC) [11]: 3.13 µg/mL
- Minimum inhibitory concentration (MIC) [12]: > 100 µg/mL
- Minimum inhibitory concentration (MIC) [13]: 50 µg/mL
- Minimum inhibitory concentration (MIC) (Candida albicans TA): > 100 µg/mL
- Minimum inhibitory concentration (MIC) [14]: 0.78 µg/mL
- Minimum inhibitory concentration (MIC) [15]: 0.78 µg/mL
- Minimum inhibitory concentration (MIC) [16]: 6.25 µg/mL
- Minimum inhibitory concentration (MIC) [17]: > 100 µg/mL
- Minimum inhibitory concentration (MIC) [18]: 1.56 µg/mL
- Minimum inhibitory concentration (MIC) [19]: 1.56 µg/mL
- Minimum inhibitory concentration (MIC) [20]: > 100 µg/mL

Compound: CCN1CCN(C(=O)N[C@@H](C(=O)NC2CN(S(=O)(=O)[O-])C2=O)c2cccs2)C(=O)C1=O.[Na+] (stereo partly drawn) [Compound F, Sodium 3-[D-2-(4-ethyl-2,3-dioxo-1-piperazinocarboxamido)-2-thienylacetamido]-2-oxoazetidine-1-sulfonate]
- Minimum inhibitory concentration (MIC) ([1]; medium B-TSA): 6.25 µg/mL
- Minimum inhibitory concentration (MIC) ([1]; medium TSA): 6.25 µg/mL
- Minimum inhibitory concentration (MIC) [2]: 6.25 µg/mL
- Minimum inhibitory concentration (MIC) [3]: 25 µg/mL
- Minimum inhibitory concentration (MIC) [4]: 0.78 µg/mL
- Minimum inhibitory concentration (MIC) (Escherichia coli 0-111): 0.2 µg/mL
- Minimum inhibitory concentration (MIC) (Escherichia coli T-7): > 100 µg/mL
- Minimum inhibitory concentration (MIC) [5]: 1.56 µg/mL
- Minimum inhibitory concentration (MIC) (Klebsiella pneumoniae DT): 0.2 µg/mL
- Minimum inhibitory concentration (MIC) [6]: 50 µg/mL
- Minimum inhibitory concentration (MIC) [7]: 1.56 µg/mL
- Minimum inhibitory concentration (MIC) [8]: < 0.1 µg/mL
- Minimum inhibitory concentration (MIC) [9]: 0.78 µg/mL
- Minimum inhibitory concentration (MIC) [10]: 12.5 µg/mL
- Minimum inhibitory concentration (MIC) [11]: 6.25 µg/mL
- Minimum inhibitory concentration (MIC) [12]: > 100 µg/mL
- Minimum inhibitory concentration (MIC) [13]: 25 µg/mL
- Minimum inhibitory concentration (MIC) (Candida albicans TA): > 100 µg/mL
- Minimum inhibitory concentration (MIC) [14]: 3.13 µg/mL
- Minimum inhibitory concentration (MIC) [15]: 3.13 µg/mL
- Minimum inhibitory concentration (MIC) [16]: 25 µg/mL
- Minimum inhibitory concentration (MIC) [17]: > 100 µg/mL
- Minimum inhibitory concentration (MIC) [18]: 6.25 µg/mL
- Minimum inhibitory concentration (MIC) [19]: 0.78 µg/mL
- Minimum inhibitory concentration (MIC) [20]: > 100 µg/mL

Compound: CON=C(C(=O)NC1CN(S(=O)(=O)[O-])C1=O)c1csc(N)n1.[Na+] (stereo not drawn) [Compound A, Sodium 3-[2-(2-amino-4-thiazolyl)-2-methoxyiminoacetamido]-2-oxoazetidine-1-sulfonate]
- MIC ([1]; Staphylococcus aureus, FDA209P, read-out: Minimum inhibitory concentration (MIC)): 50 µg/mL
- Minimum inhibitory concentration (MIC) ([1]; medium B-TSA): 50 µg/mL
- MIC ([2]; Staphylococcus aureus, 308A1, read-out: Minimum inhibitory concentration (MIC)): 25 µg/mL
- MIC ([3]; Staphylococcus aureus, 1840, read-out: Minimum inhibitory concentration (MIC)): 100 µg/mL
- MIC ([4]; Escherichia coli, NIHJJC2, read-out: Minimum inhibitory concentration (MIC)): 0.78 µg/mL
- MIC (Escherichia coli 0-111; Escherichia coli, 0111, read-out: Minimum inhibitory concentration (MIC)): 0.39 µg/mL
- MIC (Escherichia coli T-7; Escherichia coli, T7, read-out: Minimum inhibitory concentration (MIC)): > 100 µg/mL
- MIC ([5]; Citrobacter freundii, IFO12681, read-out: Minimum inhibitory concentration (MIC)): 1.56 µg/mL
- MIC (Klebsiella pneumoniae DT; Klebsiella pneumoniae, read-out: Minimum inhibitory concentration (MIC)): 0.78 µg/mL
- MIC ([6]; Enterobacter cloacae, IFO12937, read-out: Minimum inhibitory concentration (MIC)): > 100 µg/mL
- MIC ([7]; Serratia marcescens, IFO12648, read-out: Minimum inhibitory concentration (MIC)): 12.5 µg/mL
- MIC ([8]; Proteus vulgaris, IFO3988, read-out: Minimum inhibitory concentration (MIC)): 1.56 µg/mL
- MIC ([9]; Proteus mirabilis, IFO3849, read-out: Minimum inhibitory concentration (MIC)): 6.25 µg/mL
- MIC ([10]; Morganella morganii, IFO3168, read-out: Minimum inhibitory concentration (MIC)): 25 µg/mL
- MIC ([11]; Pseudomonas aeruginosa, IFO3455, read-out: Minimum inhibitory concentration (MIC)): 6.25 µg/mL
- MIC ([12]; Pseudomonas aeruginosa, U31, read-out: Minimum inhibitory concentration (MIC)): > 100 µg/mL
- MIC ([13]; Acinetobacter calcoaceticus, IFO13006, read-out: Minimum inhibitory concentration (MIC)): 6.25 µg/mL
- MIC (Candida albicans TA; Candida albicans, read-out: Minimum inhibitory concentration (MIC)): > 100 µg/mL
- MIC ([14]; Streptococcus pyogenes, E14, read-out: Minimum inhibitory concentration (MIC)): 3.13 µg/mL
- MIC ([15]; Streptococcus pyogenes, S8, read-out: Minimum inhibitory concentration (MIC)): 3.13 µg/mL
- MIC ([16]; Streptococcus mitis, read-out: Minimum inhibitory concentration (MIC)): 25 µg/mL
- MIC ([17]; Enterococcus faecium, IFO3128, read-out: Minimum inhibitory concentration (MIC)): > 100 µg/mL
- MIC ([18]; Streptococcus pneumoniae, read-out: Minimum inhibitory concentration (MIC)): 12.5 µg/mL
- MIC ([19]; Corynebacterium diphtheriae, read-out: Minimum inhibitory concentration (MIC)): 1.56 µg/mL
- MIC ([20]; Bordetella bronchiseptica, read-out: Minimum inhibitory concentration (MIC)): 100 µg/mL
